Here are results for six compounds from US6541508B2, “Taxane prodrugs” (Nobex Corporation, priority 1999, dated 2003).

Where two headings read alike, the source gives them in different places.

Series [1] relates to A121 ovarian carcinoma cell line. Description: Cell growth inhibition, sulforhodamine B (SRB) assay, A121. In kind it is cell-based, human. The conditions noted are these: 72-96 h, read-out: IC50 nM (±S.E.) A121. For orientation: Sulforhodamine B stains cellular protein and so reports cell mass.
Procedure: (§1) Cell lines were propagated as monolayers in RPMI-1640 containing 5% FCS, 5% NuSerum IV, 20 mM HEPES, 2 mM L-glutamine at 37° C. in a 5% CO2 humidified atmosphere.
(§2) Paclitaxel was solubilized in 100% DMSO. TX-001 and 002 were solubilized in sterile H2O acidified with 10% 1 N HCl. For the first experiment, 4.0 mM stocks of TX-001 and 002 were prepared. Solutions of TX-001 and TX-002 contained clear needle-like and cast-like precipitates and were fairly viscous (Experiment 1). For the second experiment (Experiment 2), less concentrated stock solutions (0.4 mM) of each compound were prepared in sterile H2O acidified with 10% 1 N HCl. The same type of precipitates were noted, however neither solution was viscous. All compounds were further diluted in RPMI-1640 containing 10 mM HEPES.
(§3) Assessment of cell growth inhibition was determined in 96 well microtiter plates according to the method of Skehan et al., “New Colorimetric Cytotoxicity Assay for Anticancer-Drug Screening, Articles 82(13):1107-1112 (1990). Briefly, cells were plated with 400-1800 cells/well in 96 well plates and incubated at 37° C. 15-18 hr prior to drug addition to allow for cell attachment. Each cell line was exposed to 12 concentrations of compound (a 6 log range), 5 replicate data points per compound concentration. […] Assays were terminated with 100 μl of ice-cold 50% TCA. […] Optical density was measured at 570 nm. […]
For series [2], the system named is MDA435/LCC6-WT breast carcinoma cell line. Description: Cell growth inhibition, SRB assay, LCC6-WT. In kind it is cell-based, human. Conditions: read-out: IC50 nM (±S.E.) LCC6-WT.
Procedure: as §1, §2
Assessment of cell growth inhibition was determined in 96 well microtiter plates according to the method of Skehan et al., “New Colorimetric Cytotoxicity Assay for Anticancer-Drug Screening, Articles 82(13):1107-1112 (1990). Briefly, cells were plated with 400-1800 cells/well in 96 well plates and incubated at 37° C. 15-18 hr prior to drug addition to allow for cell attachment. Each cell line was exposed to 12 concentrations of compound (a 6 log range), 5 replicate data points per compound concentration. […] Assays were terminated with 100 μl of ice-cold 50% TCA. After 1 hr at 4° C., plates were washed 5 times with tap water to remove TCA, low-molecular-weight metabolites and serum proteins. 50 μl of 0.4% sulforhodamine B (SRB) was added to each well. Following a five minute incubation at room temperature, plates were rinsed 5 times with 0.1% acetic acid and air dried. Bound dye was solubilized with 10 mM Tris Base (pH 10.5) for 5 min on a gyratory shaker. Optical density was measured at 570 nm. […]
Series [3] concerns HT-1080 fibrosarcoma cell line. Put plainly: Cell growth inhibition, SRB assay, HT-1080. In kind it is cell-based, human. Conditions: 72-96 h, read-out: IC50 nM (±S.E.) HT-1080.
Procedure: as §1, §2, §3
Series [4] relates to HT-1080/DR4 doxorubicin selected MDR (MRP/LRP phenotype) fibrosarcoma cell line. Put plainly: Cell growth inhibition, SRB assay, HT-1080-DR4. Conditions: for IC50: 72-96 h, read-out: IC50 nM (±S.E.) HT-1080-DR4; for Resistance ratio (IC50 resistant cell line/IC50 parental line): MRP/LRP expressing HT1080/DR4 vs HT-1080. It counts as cell-based, human.
Procedure: as §1, §2
Assessment of cell growth inhibition was determined in 96 well microtiter plates according to the method of Skehan et al., “New Colorimetric Cytotoxicity Assay for Anticancer-Drug Screening, Articles 82(13):1107-1112 (1990). Briefly, cells were plated with 400-1800 cells/well in 96 well plates and incubated at 37° C. 15-18 hr prior to drug addition to allow for cell attachment. Each cell line was exposed to 12 concentrations of compound (a 6 log range), 5 replicate data points per compound concentration. […] Assays were terminated with 100 μl of ice-cold 50% TCA. After 1 hr at 4° C., plates were washed 5 times with tap water to remove TCA, low-molecular-weight metabolites and serum proteins. 50 μl of 0.4% sulforhodamine B (SRB) was added to each well. Following a five minute incubation at room temperature, plates were rinsed 5 times with 0.1% acetic acid and air dried. Bound dye was solubilized with 10 mM Tris Base (pH 10.5) for 5 min on a gyratory shaker. Optical density was measured at 570 nm.
Data were fit with the Sigmoid-Emax concentration-effect model (N. H. G. Holford and L. B. Scheiner, “Understanding the dose-effect relationship: Clinical applications of pharmacokinetic-pharmacodynamic models,” Clin. Pharmacokin. 6:429-453 (1981)) with nonlinear regression, weighted by the reciprocal of the square of the predicted response.
The nature of series [5]: Stability of trifluoroacetate product fraction solutions on storage. In kind it is physicochemical. Conditions: preparative HPLC fraction solutions, initially 98.8% average purity; 8° C. for 16 days; analytical HPLC.
Series [6] concerns paclitaxel-resistant cells. The conditions noted are these: cited from earlier work.
The test system of a further series is tubulin. Conditions: cited from earlier work.
Series [7] concerns LCC6-MDR1 Pgp transfected breast carcinoma cell line. Put plainly: Cell growth inhibition, SRB assay, LCC6-MDR. Conditions: LCC6-MDR1 variant line overexpressing Pgp vs LCC6-WT.
Procedure: as §1, §2, §3
[8] abbreviates: Experiment 1, TX-001/TX-002 from 4.0 mM stocks.
The mark [9] stands for this setting: Experiment 2, TX-001/TX-002 from 0.4 mM stocks.

In general, IC50 refers to the concentration needed to halve the response being measured. For “2′-Succinamidyl-PEG2-amine-paclitaxel Acetate [Compound 4]”, the IC50 in series [1] (setting [8]) was 13 ± 0.5 nM; in series [1] (setting [9]) it was 37 ± 1.2 nM; in series [2] (4.0 mM stock solutions stored at 4° C. for 7 days) it was 2.7 ± 0.4 nM; in series [2] (Experiment 1, TX-001/TX-002 from 4.0 mM stocks, 72-96 h), 4.9 ± 0.5 nM; in series [2] (Experiment 2, TX-001/TX-002 from 0.4 mM stocks, 72-96 h), 13 ± 0.5 nM; in series [3] (setting [8]), 4.5 ± 0.4 nM. For the same compound, the IC50 in series [3] (setting [9]) turned out to be 19 ± 0.7 nM; in series [4] (setting [8]), 8.9 ± 0.4 nM; in series [4] (setting [9]), 36 ± 1.5 nM.
In the case of “2′-Succinamidyl-PEG2-amine-paclitaxel Trifluoroacetate [Compound 3]”, the “average purity after storage” value in series [5] is on record as 97.4%.
For the compound `CC(=O)O[C@@]12CO[C@@H]1C[C@H](O)[C@@]1(C)C(=O)[C@H](O)C3=C(C)[C@@H](OC(=O)[C@H](O)[C@@H](NC(=O)OC(C)(C)C)c4ccccc4)C[C@@](O)([C@@H](OC(=O)c4ccccc4)[C@H]21)C3(C)C` [Docetaxel, docetaxel], in series [6], the “activity relative to paclitaxel” value is recorded as “about five times as active as paclitaxel”.
For the compound A-nor-paclitaxel, the “tubulin-assembly activity relative to paclitaxel” value in the series with tubulin is on record as “only three times less than that of paclitaxel”.
For `CC(=O)O.CC(=O)OC1C(=O)C2(C)C(O)CC3OCC3(OC(C)=O)C2C(OC(=O)c2ccccc2)C2(O)CC(OC(=O)C(OC(=O)CCCC(=O)NCCOCCOCCN)C(NC(=O)c3ccccc3)c3ccccc3)C(C)=C1C2(C)C` (stereo not shown) [Compound 5, 2′-Glutaramidyl-PEG2-amine-paclitaxel acetate], the figures for the “Resistance ratio (IC50 resistant cell line/IC50 parental line)” value in series [4] and in series [7] were 1.1-1.5 fold and 47-60 fold, respectively.
With `CC(=O)O[C@H]1C(=O)[C@@]2(C)[C@H]([C@H](OC(=O)c3ccccc3)[C@]3(O)C[C@H](OC(=O)[C@H](O)[C@@H](NC(=O)c4ccccc4)c4ccccc4)C(C)=C1C3(C)C)[C@]1(OC(C)=O)CO[C@@H]1C[C@@H]2O` [Paclitaxel, reference compound], the “Resistance ratio (IC50 resistant cell line/IC50 parental line)” value in series [4] was 1.1-1.4 fold; in series [7], 65-92 fold.
